Bounds are passed on as bounds.

In general, EC50 refers to the concentration that produces a half-maximal response.

The assay addresses T1, Human TLR7 (Homo sapiens, UniProt Q9NYK1).
T1 construct: expressed in transfected cells; host or cells: HEK293 (hTLR7/seap-293)
T1 sequence (Q9NYK1 27-1049): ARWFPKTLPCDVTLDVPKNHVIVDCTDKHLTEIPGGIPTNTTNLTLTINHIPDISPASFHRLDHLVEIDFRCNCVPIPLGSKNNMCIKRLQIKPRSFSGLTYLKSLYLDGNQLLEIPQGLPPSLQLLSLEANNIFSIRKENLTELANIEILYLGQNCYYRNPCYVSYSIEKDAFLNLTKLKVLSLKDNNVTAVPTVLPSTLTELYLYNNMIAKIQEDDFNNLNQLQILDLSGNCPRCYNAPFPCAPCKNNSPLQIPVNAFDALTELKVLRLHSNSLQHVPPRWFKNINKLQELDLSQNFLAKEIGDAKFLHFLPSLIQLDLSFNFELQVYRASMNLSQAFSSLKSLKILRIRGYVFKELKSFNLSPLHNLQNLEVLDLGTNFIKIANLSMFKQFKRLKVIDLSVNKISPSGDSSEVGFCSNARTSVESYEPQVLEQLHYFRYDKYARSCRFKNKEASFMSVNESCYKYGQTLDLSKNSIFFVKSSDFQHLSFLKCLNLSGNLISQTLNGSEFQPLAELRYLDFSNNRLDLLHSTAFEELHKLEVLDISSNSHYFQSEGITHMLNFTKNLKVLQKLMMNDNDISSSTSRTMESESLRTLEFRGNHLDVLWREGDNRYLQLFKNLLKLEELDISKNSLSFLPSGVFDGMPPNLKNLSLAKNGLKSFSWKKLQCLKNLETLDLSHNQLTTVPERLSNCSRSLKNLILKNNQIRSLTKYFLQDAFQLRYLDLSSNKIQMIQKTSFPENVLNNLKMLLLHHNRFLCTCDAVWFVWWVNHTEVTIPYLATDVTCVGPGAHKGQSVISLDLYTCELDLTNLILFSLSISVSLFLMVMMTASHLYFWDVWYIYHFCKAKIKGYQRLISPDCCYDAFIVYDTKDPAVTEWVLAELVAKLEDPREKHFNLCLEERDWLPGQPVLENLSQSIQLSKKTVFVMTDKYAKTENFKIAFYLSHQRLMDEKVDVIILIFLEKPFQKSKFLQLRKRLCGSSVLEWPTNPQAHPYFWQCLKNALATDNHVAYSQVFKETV
Put plainly: Human TLR7 reporter assay (NF-kB-SEAP, HEK293 cells). In kind it is cell-based. As to conditions: hTLR7/seap-293 cells (HEK293, NF-kB-SEAP reporter), 20 hours incubation, 1 nM-10 μM, absorbance 405 nm; read-out: human TLR7 binding activity (EC50). How it is done: Human TLR7 Reporter Assay
Human TLR7 or rat TLR7 plasmid and reporter plasmid (NF-kB-SEAP) stably-induced HEK293 cells were suspended in DMEM media (10% […], 1% NEAA, 10 ug/mL blastocidin S HCl, 100 ug/mL Zeocin), and the suspension was seeded in 90 μl/well on 96 well plate (hTLR7/seap-293:20000 cells/well, rTLR7/seap-293:25000 cells/well).
To the cells seeded on 96 well plate was added in 10 μl/well a test compound wherein DMSO stock solution (2 μl) was hundredfold diluted with medium (200 μl) (final concentration; 1 nM-10 μM, common ratio 3). The mixture was stirred tapping in the side of the plate, and then incubated for 20 hours in CO2 incubator. To the cells stimulated by a test compound was added a substrate for reporter assay (substrate for SEAP, pNPP) by 50 μl/well. 10 minutes after the addition of substrate, a quenching solution (4N NaOH) was added by 50 μl/well, and the enzymatic reaction was quenched. Top seal A was attached on the plate, and absorbance was measured by microplate reader (405 nm).
For orientation: Reporter assays use an easily measured gene product as a stand-in for the process of interest.
For the molecule `CCCCOc1nc(N)c2[nH]c(=O)n(Cc3ccc(OCCCCN4CCC(C(=O)OC)CC4)cc3)c2n1` [Example 1, 2-Butoxy-7,8-dihydro-9-[4-{4-[4-(methoxycarbonyl)-piperidin-1-yl]butoxy}benzyl]-8-oxoadenine], the EC50 was determined as 5.7 nM.
Turning to `CCCCOc1nc(N)c2[nH]c(=O)n(Cc3ccc(OCCCCN4CCC(C(=O)OCCCCN(C)C)CC4)cc3)c2n1` [Example 3, 2-butoxy-7,8-dihydro-9-(4-[4-{4-[4-(N,N-dimethylamino)butoxycarbonyl]piperidin-1-yl}butoxy]benzyl)-8-oxoadenine], the EC50 came to 7.8 nM.
As to `CCCCOc1nc(N)c2[nH]c(=O)n(Cc3ccc(OCCCN(C)CC(=O)OC)cc3)c2n1` [Example 4, 2-butoxy-7,8-dihydro-9-[4-{3-[(N-methyl-N-methoxycarbonylmethyl)amino]propoxy}benzyl]-8-oxoadenine], the EC50 amounted to 7.8 nM.
As to `CCCCOc1nc(N)c2[nH]c(=O)n(Cc3ccc(OCC4CCN(CC(=O)OC)CC4)cc3)c2n1` [Example 5, 2-butoxy-7,8-dihydro-9-{4-[1-(methoxycarbonylmethyl)piperidin-4-ylmethyloxy]benzyl}-8-oxoadenine], the half-maximal effective concentration (EC50) was found to be 3.6 nM.
Consider `CCCCOc1nc(N)c2[nH]c(=O)n(Cc3ccc(OCC4CCN(CC(=O)OCCCCN(C)C)CC4)cc3)c2n1` [Example 7, 2-Butoxy-7,8-dihydro-9-[4-{1-[4-(N,N-dimethylamino)-butoxycarbonylmethyl]piperidin-4-ylmethyloxy}benzyl]-8-oxoadenine], for which the concentration for a half-maximal effect (EC50) was 5.1 nM.
Consider `CCCCOc1nc(N)c2[nH]c(=O)n(Cc3ccc(CN(C)CC(=O)OC)cc3)c2n1` [Example 9, 2-Butoxy-7,8-dihydro-9-[4-(N-methoxycarbonylmethyl-N-methylaminomethyl)benzyl]-8-oxoadenine], for which the EC50 turned out to be 8.8 nM.
With `COCCOc1nc(N)c2[nH]c(=O)n(Cc3ccc(CN(C)CC(=O)OC)cc3)c2n1` [Example 12, 7,8-Dihydro-9-[4-(N-methoxycarbonylmethyl-N-methylaminomethyl)benzyl]-2-(2-methoxyethoxy)-8-oxoadenine], the EC50 amounted to 252 nM.
Next, `CCCCOc1nc(N)c2[nH]c(=O)n(Cc3ccc(CN(C)CC(=O)OC)cc3OC)c2n1` [Example 16, 2-Butoxy-7,8-dihydro-9-[2-methoxy-4-(N-methoxycarbonylmethyl-N-methylaminomethyl)benzyl]-8-oxoadenine]: 15.6 nM.
Turning to `CCCCOc1nc(N)c2[nH]c(=O)n(Cc3ccc(CCN4CCC(C(=O)OC)CC4)cc3)c2n1` [Example 18, 2-Butoxy-7,8-dihydro-9-{4-[2-(4-methoxycarbonyl-piperidin-1-yl)ethyl]benzyl}-8-oxoadenine], the concentration for a half-maximal effect (EC50) turned out to be 2.2 nM.
For `CCCCOc1nc(N)c2[nH]c(=O)n(Cc3ccc(CCN(C)CC(=O)OC)cc3)c2n1` [Example 20, 2-Butoxy-7,8-dihydro-9-{4-[2-(N-methoxycarbonylmethyl-N-methylamino)ethyl]benzyl}-8-oxoadenine], the half-maximal effective concentration (EC50) was 18.5 nM.
Take `CCCCOc1nc(N)c2[nH]c(=O)n(Cc3ccc(CCCN(C)CC(=O)OC)cc3)c2n1` [Example 21, 2-Butoxy-7,8-dihydro-9-{4-[3-(N-methoxycarbonylmethyl-N-methylamino)propyl]benzyl}-8-oxoadenine]: the EC50 stood at 6.8 nM.
In the case of `CCCCOc1nc(N)c2[nH]c(=O)n(Cc3ccc(CN(C)CC(=O)OCCCCN(C)C)cc3OC)c2n1` [Example 23, 2-Butoxy-7,8-dihydro-9-{4-[N-(4-dimethylaminobutoxy-carbonylmethyl)-N-methylaminomethyl]-2-methoxybenzyl}-8-oxoadenine], the concentration giving a half-maximal response (EC50) came to 15.7 nM.
For the molecule `CCCCOc1nc(N)c2[nH]c(=O)n(Cc3ccc(OCCCCN4CCC(C(=O)OC)CC4)nc3)c2n1` [Example 24, 2-butoxy-7,8-dihydro-9-{6-[4-(4-methoxylcarbonylpiperidin-1-yl)butoxy]pyridin-3-ylmethyl}-8-oxoadenine], the EC50 was under 1 nM.
For `CCCCOc1nc(N)c2[nH]c(=O)n(Cc3ccc(OCCCCN(C)CC(=O)OC)nc3)c2n1` [Example 26], the 50% effective concentration (EC50) is 2.8 nM.
With `CCCCOc1nc(N)c2[nH]c(=O)n(Cc3ccc(OCCCCN(C)CC(=O)OCCCCN(C)C)nc3)c2n1` [Example 28, 2-Butoxy-7,8-dihydro-9-[6-(4-{N′-methyl-N′-[4-(N,N-dimethylamino)butoxycarbonylmethyl]}aminobutoxy)pyridin-3-ylmethyl]-8-oxoadenine], the 50% effective concentration (EC50) amounted to 2 nM.

Source of the values: US20090105212A1, “NOVEL ADENINE COMPOUND” (priority 2005, published 2009).
